Laboratory results from patent publication US7531320B2, “Modulation of β-catenin/TCF-activated transcription” (priority 2003, dated 2009).

Tested on: fra-1
Assay: Real Time RT-PCR in SW480 cells, fra-1
Type: cell-based, human
Details: 25 μM; for ΔCT fra-1: relative to β-actin
Protocol: The RNeasy Midi Kit (Qiagen) was used for RNA extraction and Real Time RT-PCR was performed according to the protocol provided with the SYBR Green PCR Master Mix Kit (Perkin Elmer Biosystems, Shelton, Conn.). The primers used for cyclin D1, axin2, hnkd, c-myc, c-jun, and fra-1 amplifications were: cyclin D1 forward primer:5′-[…]-CCTGCTG-3′ (SEQ ID NO: 32) reverse primer: 5′-[…]-3′ (SEQ ID NO: 33) leading to a product size of approximately 300 bp; axin2 forward primer: 5′-[…] GGAAA-CT-3′ (SEQ ID NO: 34) and reverse primer: 5′-[…]-GAGA-3′ (SEQ ID NO: 35); hnkd forward primer: 5′-[…] TTGCGT-3′ (SEQ ID NO: 36) and the reverse primer: 5′-[…] ACGT-3′ (SEQ ID NO: 37); c-myc forward primer: 5′-GAA-[…] CTGC-3′ (SEQ ID NO: 38) and reverse primer: 5′-[…]-G-3′ (SEQ ID NO: 39); c-jun forward primer: 5′-[…]-3′ (SEQ ID NO: 40) and reverse primer: 5′-[…]-3′ (SEQ ID NO: 41); fra-1 forward primer: 5′-ACC-[…]-[…]-3′ (SEQ ID NO: 42) and reverse primer: 5′-[…]-TT-3′ (SEQ ID NO: 43). β-actin was used for normalization. […]
1 μg of mRNA, for each time point, was subjected to Real Time RT-PCR. Expression level of endogenous cyclin D1, c-myc, fibronectin, hnkd, axin2, c-jun, and BMP-4 were measured relative to β-actin. Quantitation of The ΔCycle of Threshold (CT) values was determined by subtracting the average values of each set by the corresponding average values obtained for β-actin. […]
The cyclin D1 gene is inappropriately expressed in many different tumor types, and is known to be a direct target of the Wnt/β-catenin pathway (Shtutman et al., “The cyclin D1 gene is a target of the beta-catenin/LEF-1 pathway,” Proc. Natl. Acad. Sci. USA 96:5522-27 (1999); Tetsu et al., “Beta-catenin regulates expression of cyclin D1 in colon carcinoma cells,” Nature 398:422-26 (1999)). […] Expression level of endogenous cyclin D1, c-myc, fibronectin, hnkd, axin2, c-jun, and BMP-4 were measured relative to β-actin. Quantitation of The ΔCycle of Threshold (CT) values was determined by subtracting the average values of each set by the corresponding average values obtained for β-actin. […]

**Q.** `O=C1C(Cc2ccc(O)cc2)N2C(=O)CCN(C(=O)NCc3ccccc3)C2CN1Cc1cccc2ccccc12` (stereo not drawn) [COMPOUND 1] was tested. Which “mRNA fra-1 (direction)” value did it give?
**A.** Its value is “↑”.

**Q.** And the “ΔCT fra-1” value (4 hours)?
**A.** Its value is −1.0.

**Q.** What about the “ΔCT fra-1” value (8 hours) of the same compound?
**A.** Its value is −1.4.
